The record followed here is article PMC7849180 (Frontiers in Pharmacology, 2020).

The test system of one data set is Ba/F3-EpoR cell line. Description: Cell activity of Ba/F3-EpoR cell line. The format is cell-based. The conditions noted are these: read-out: IC50, inhibition of cell activity. An excerpt:
Suzhou Zelgen Biopharmaceuticals Co., Ltd. Jaktinib Hydrochloride Tablets Chemical Drug Class 1 New Drug and ZG0178. However, the inhibitory effect on the activity of Ba/F3-EpoR cell line […]
respectively. Obviously, this selective inhibition is associated with the aberrant expression of JAK2 in Ba/F3-EpoR-JAK2V617F mutant cells, and the degree of ZG0163 inhibition on JAK-STAT signaling pathway in this cell line. […]
cells, and the effects of ZG0163 was similar to those of positive control compounds, […]
In Vitro Inhibitory Effect of ZG0128 on Cell Lines Transfected with Oncogenes and Primary Blood Cells in Patients with Polycythemia Vera
In vitro cell culture assay was used to determine whether compound ZG0128 […]
cell line harboring a JAK2V617F mutation, and 8 HCD-57 cell lines stably transfected with oncogenic mutations JAK2V617F, MPLW515L, KITD816V, NPM-ALK, FLT3-ITD, FLT3D835H, FLT3D835Y and KRasG12V, respectively. In addition, study the inhibitory effects of compound ZG0128 on the growth of hematopoietic progenitor cells in patients with polycythemia vera.
9 cell lines were similar to those of positive control drug ZG0192. At the sub-micromolar concentration, both compounds ZG0128 and ZG0192 were able to […]
the growth of HCD-57 cells transfected with oncogenic mutations JAK2V617F, […]
spectrum inhibitory effect on tyrosine kinases. […]

Data set [1] concerns cells transformed by selected oncogenic mutants of tyrosine kinases. Description: Inhibition of transformed cells. Type of data set: cell-based.
Data set [2] is described as follows: Plasma pharmacokinetics, multiple ascending dose (MAD), 10 days. The format is in vivo, human. As for the experimental part: MAD study was conducted after evaluating the tolerance of the single dose 100 mg cohort. In MAD part, volunteers were designed into five cohorts (100 mg q24h, 150 mg q24h, 100 mg q12h, 200 mg q24h, 150 mg q12h). […] The MAD part was initiated after the safety and tolerance evaluation from SAD 100 mg cohorts. Progression to higher MAD doses was allowed after review the safety data of the prior MAD cohorts.
For MAD cohorts, blood samples were collected at 0, 0.25, 0.5, 1, 1.5, 2, 3, 4, 5, 6, 8 and 12 h on day 1; 0 h on day 2, 3, 4, 6 and 7; 0, 0.25, 0.5, 1, 1.5, 2, 3, 4, 5, 6, 8, 12, 24, 36 and 48 h on day 10. In food effect cohort, blood samples were collected at 0, 0.25, 0.5, 1, 1.5, 2, 3, 4, 5, 6, 8, 12, 24, 36, 48, 72, 96 and 120 h in period one of group A; 0, 0.25, 0.5, 1, 1.5, 2, 3, 4, 5, 6, 8, 12, 24, 36 and 48 h in period two of group A and the two periods of group B. Blood samples were centrifuged at 3,000 rpm for 10 min at 2–8 °C and stored at -80 °C until liquid chromatography-mass spectrophotometry (LC-MS/MS) analysis. Urine and feces samples were collected in period one of group A of food effect cohort with the intervals 0, 0–6, 6–12, 12–24, 24–48, 48–72, 72–96, 96–120 and 0–120 h, respectively. […]

Data set [3] is described as follows: Metabolic stability in liver microsomes. The format is in vitro ADME, human. The method, then:
The metabolic stability of ZG0128 (the dihydrochloride monohydrate of ZG0163) was evaluated using human, monkey, dog, rat, and mouse liver microsomes as the in vitro models. The percentages of residues for ZG0128 after incubating in human, monkey, dog, rat, and mouse liver microsomes for 60 minutes was 55.5%, 63.1%, 67.1%, 80.3%, and 79.0%, respectively. The CLint values of in vivo clearance were calculated to be 24.1, 21.6, 33.4, 10.7, 26.0 mL/min/kg, respectively. Thus its was speculated that ZG0128 was a medium clearance drug in humans, monkeys, and mice, a high clearance drug in dogs, and a low clearance drug in rats.
Using UPLC-UV/Q-TOF MS, the potential metabolites of ZG0128 in various liver microsomes (human, monkey, dog, rat and mouse liver microsomes) incubation systems were identified and the metabolic pathways of ZG0128 were speculated. The main metabolite of ZG0128 in above five types of liver microsomes were primary alcohol metabolite formed by morpholine ring-opening (M3). […]
(Liver microsomes are vesicles of endoplasmic reticulum, rich in cytochrome P450 enzymes.)

For data set [4] the following is noted: rat, in vivo, po. The text has this:
Chemical Drug Class 1 New Drug
The study consisted of 4 groups, including the control group and dose groups of […]

The test system of a further data set is myelofibrosis. As to the kind of experiment: Myelofibrosis in JAK2V617F bone marrow transplanted mice. Type of data set: in vivo. To be noted: 100 mg/kg, 5 weeks.

In the case of Jaktinib, the IC50 (commonly the concentration that gives 50% inhibition) in the data set on Ba/F3-EpoR cell line is 1.5 µM; in data set [1] it was 0.1 µM. In addition, the “accumulation factor Rac (90% CI)” value in data set [2] (100 mg q12h) turned out to be 1.24; in data set [2] (100 mg q24h), 0.98; in data set [2] (150 mg q12h) it was 1.38; in data set [2] (150 mg q24h), 1.16; in data set [2] (200 mg q24h) it was 0.94. The “Cmax, geometric mean (CV%)” value is recorded as 204.68 (36.2) ng/ml in data set [2] (100 mg q12h, Day 1); 226.87 (33.2) ng/ml in data set [2] (100 mg q12h, Day 10); 182.68 (73.4) ng/ml in data set [2] (100 mg q24h, Day 1); 150.84 (76.7) ng/ml in data set [2] (100 mg q24h, Day 10); 295.08 (52.6) ng/ml in data set [2] (150 mg q12h, Day 1); 470.78 (38.2) ng/ml in data set [2] (150 mg q12h, Day 10). The “Cmax, geometric mean (CV%)” value in data set [2] (150 mg q24h, Day 1) is given as 236.94 (88.6) ng/ml; in data set [2] (150 mg q24h, Day 10) it was 250.23 (70.3) ng/ml; in data set [2] (200 mg q24h, Day 1), 327.37 (36.6) ng/ml; in data set [2] (200 mg q24h, Day 10) it was 296.88 (58.3) ng/ml. Besides, the “Tmax, median (min–max)” value in data set [2] (100 mg q12h, Day 1) is listed as 1.50 (0.50–4.00) h; in data set [2] (100 mg q12h, Day 10) it was 3.00 (0.50–4.00) h; in data set [2] (100 mg q24h, Day 1) it was 2.00 (1.00–4.00) h; in data set [2] (100 mg q24h, Day 10), 1.50 (1.00–4.00) h; in data set [2] (150 mg q12h, Day 1), 2.00 (1.00–4.00) h; in data set [2] (150 mg q12h, Day 10) it was 1.25 (0.50–2.00) h. The “Tmax, median (min–max)” value is reported as 3.00 (1.00–6.00) h in data set [2] (150 mg q24h, Day 1); 2.50 (1.00–5.00) h in data set [2] (150 mg q24h, Day 10); 2.50 (1.50–4.00) h in data set [2] (200 mg q24h, Day 1); 3.00 (1.50–4.00) h in data set [2] (200 mg q24h, Day 10). In addition, the “Cmin,ss, geometric mean (CV%)” value in data set [2] (100 mg q12h, Day 10) is reported as 27.565 (96.3) ng/ml; in data set [2] (100 mg q24h, Day 10) it was 8.217 (169.4) ng/ml; in data set [2] (150 mg q12h, Day 10) it was 26.868 (39.2) ng/ml; in data set [2] (150 mg q24h, Day 10) it was 14.342 (71.1) ng/ml; in data set [2] (200 mg q24h, Day 10), 10.798 (125.4) ng/ml. Moreover, the “Fluctuation, geometric mean (CV%)” value in data set [2] (100 mg q12h, Day 10) is on record as 204.463 (31.3) %; in data set [2] (100 mg q24h, Day 10), 290.146 (45.7) %; in data set [2] (150 mg q12h, Day 10), 274.265 (17.3) %; in data set [2] (150 mg q24h, Day 10), 281.461 (29.1) %; in data set [2] (200 mg q24h, Day 10), 390.098 (38.5) %. For the same compound, in data set [2] (continuous administration, trough concentrations), the “time to steady state” value is listed as “approximately 4 days”.

Take `Cl.Cl.O.[2H]C1([2H])COCC([2H])([2H])N1c1ccc(Nc2nccc(-c3ccc(C(=O)NCC#N)cc3)n2)cc1` [ZG0128, Jaktinib Dihydrochloride Monohydrate]: in data set [3], the “CLint of in vivo clearance” value stood at 1.45 L/h/kg and the “percentage of residue after 60 minutes” value was 55.5%. Further, the “maximum tolerated dose (MTD)” value in data set [4] was 732 mg/kg. Besides, the progression of myelofibrosis entry with myelofibrosis was “significantly and effectively inhibited the progression of myelofibrosis”.
